These results are taken from US8609399B2, “Reducing insoluble deposit formation in ethanol production” (Global Process Technologies, Inc., priority 2007, dated 2013).

A short description of the series: Solubility in Presence of Ethanol (temperature at which a precipitate became visible). Type of series: physicochemical. The following applies: 800 ppm Mg2+ and 3600 ppm phytic acid. The text has this: In the table, the water and ethanol columns indicate the temperature at which a precipitate became visible in a solution containing 800 ppm Mg^2+ and 3600 ppm phytic acid.

As to magnesium phytate, the “Temperature (° C.; in 13% ethanol/87% water solution) at which a precipitate became visible” value (pH 4.35) worked out at 40 °C, the “Temperature (° C.; in 13% ethanol/87% water solution) at which a precipitate became visible” value (pH 4.53) came to 30 °C and the “Temperature (° C.; in 13% ethanol/87% water solution) at which a precipitate became visible” value (pH 4.6) amounted to 21 °C. Besides, the “Temperature (° C.; in 100% water solution) at which a precipitate became visible” value (pH 4.52) is 80 °C, the “Temperature (° C.; in 100% water solution) at which a precipitate became visible” value (pH 4.97) came to 60 °C, the “Temperature (° C.; in 100% water solution) at which a precipitate became visible” value (pH 5.36) is 40 °C and the “Temperature (° C.; in 100% water solution) at which a precipitate became visible” value (pH 5.6) amounted to 21 °C.
